What all share (assay type): cell-based
The target in data set [1] is T1, human TLR9 (Homo sapiens, UniProt Q9NR96, H530R/Q688R).
T1 construct: expressed in transfected cells
T1 sequence (Q9NR96 26-1032 H530R/Q688R): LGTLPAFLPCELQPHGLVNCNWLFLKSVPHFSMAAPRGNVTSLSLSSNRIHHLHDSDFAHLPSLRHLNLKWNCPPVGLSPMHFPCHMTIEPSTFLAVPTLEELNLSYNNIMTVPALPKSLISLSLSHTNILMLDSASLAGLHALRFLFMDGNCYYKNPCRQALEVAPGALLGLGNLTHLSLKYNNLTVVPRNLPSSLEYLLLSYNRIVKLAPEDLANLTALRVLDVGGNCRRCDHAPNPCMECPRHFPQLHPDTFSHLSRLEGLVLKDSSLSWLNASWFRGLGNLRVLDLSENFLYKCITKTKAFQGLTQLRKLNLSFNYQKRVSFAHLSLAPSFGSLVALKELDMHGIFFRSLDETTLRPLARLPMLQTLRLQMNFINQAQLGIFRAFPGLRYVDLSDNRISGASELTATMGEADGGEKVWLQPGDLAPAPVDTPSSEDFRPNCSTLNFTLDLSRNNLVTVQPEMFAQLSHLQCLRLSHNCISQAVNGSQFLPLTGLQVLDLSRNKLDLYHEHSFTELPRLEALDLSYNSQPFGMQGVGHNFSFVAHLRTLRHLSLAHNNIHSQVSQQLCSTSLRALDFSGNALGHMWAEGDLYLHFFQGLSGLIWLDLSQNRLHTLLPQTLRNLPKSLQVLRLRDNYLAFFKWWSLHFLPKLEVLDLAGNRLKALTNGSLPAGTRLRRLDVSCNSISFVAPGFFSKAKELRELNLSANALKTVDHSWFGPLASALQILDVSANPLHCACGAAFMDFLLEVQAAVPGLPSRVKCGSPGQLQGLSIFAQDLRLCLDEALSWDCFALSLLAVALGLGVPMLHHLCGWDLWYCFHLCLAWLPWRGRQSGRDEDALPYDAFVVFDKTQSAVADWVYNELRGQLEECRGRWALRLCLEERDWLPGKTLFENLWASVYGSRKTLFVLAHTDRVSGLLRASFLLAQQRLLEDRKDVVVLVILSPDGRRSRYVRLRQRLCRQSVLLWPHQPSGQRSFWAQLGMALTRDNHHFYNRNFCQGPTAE
Description: NF-κB-luciferase activation in 293 cells transfected with human TLR9 (293-hTLR9-luc). Conditions: 12 hours.

The target of data set [2] is T2, murine TLR9 (Mus musculus, UniProt Q9EQU3, L378S/Q579H/T325N/T573A/T867A).
T2 construct: additional primers were designed for amplification of the complete mouse TLR9 cDNA; expressed in transfected cells
T2 sequence (Q9EQU3 26-1032 T325N/L378S/T573A/Q579H/T867A): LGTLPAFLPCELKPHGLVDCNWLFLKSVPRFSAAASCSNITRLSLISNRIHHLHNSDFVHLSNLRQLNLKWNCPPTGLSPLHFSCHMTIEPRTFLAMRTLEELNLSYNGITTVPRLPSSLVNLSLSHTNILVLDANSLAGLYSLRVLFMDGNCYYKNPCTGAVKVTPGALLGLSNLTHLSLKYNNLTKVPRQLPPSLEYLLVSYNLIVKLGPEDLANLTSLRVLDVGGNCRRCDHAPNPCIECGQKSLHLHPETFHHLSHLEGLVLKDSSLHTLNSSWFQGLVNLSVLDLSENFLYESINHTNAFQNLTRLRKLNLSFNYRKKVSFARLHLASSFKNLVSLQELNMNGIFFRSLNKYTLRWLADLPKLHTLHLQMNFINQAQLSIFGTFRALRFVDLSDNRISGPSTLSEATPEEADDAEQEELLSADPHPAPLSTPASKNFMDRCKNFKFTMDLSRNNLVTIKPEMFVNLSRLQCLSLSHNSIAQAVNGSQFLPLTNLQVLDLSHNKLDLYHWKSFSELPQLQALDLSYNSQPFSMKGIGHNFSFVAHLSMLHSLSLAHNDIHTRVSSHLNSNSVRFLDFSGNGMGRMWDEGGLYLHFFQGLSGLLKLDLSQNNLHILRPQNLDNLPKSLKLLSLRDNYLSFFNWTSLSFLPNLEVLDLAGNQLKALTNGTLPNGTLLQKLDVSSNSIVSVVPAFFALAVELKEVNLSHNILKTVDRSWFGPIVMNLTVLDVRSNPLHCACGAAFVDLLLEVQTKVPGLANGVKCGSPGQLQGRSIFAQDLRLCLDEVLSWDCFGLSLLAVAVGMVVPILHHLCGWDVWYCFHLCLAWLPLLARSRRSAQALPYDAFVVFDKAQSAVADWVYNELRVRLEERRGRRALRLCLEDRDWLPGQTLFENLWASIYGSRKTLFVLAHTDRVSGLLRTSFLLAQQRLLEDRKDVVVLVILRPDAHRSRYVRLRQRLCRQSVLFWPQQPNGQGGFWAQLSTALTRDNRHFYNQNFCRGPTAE
Put plainly: NF-κB-luciferase activation in 293 cells transfected with murine TLR9 (293-mTLR9-luc). The conditions noted are these: for EC50: ODN concentration of half-maximal activation, 293-mTLR9-luc cells, NF-κB-driven luciferase readout, 12 hours, read-out: 293-mTLR9 Kac. An excerpt:
Human fibroblast 293 cells were transiently transfected with mTLR9 and the NF-κB-luc construct (FIG. 2). Similar data was obtained for IL-8 production (not shown). Thus expression of TLR9 (human or mouse) in 293 cells results in a gain of function for CpG-DNA stimulation similar to hTLR4 reconstitution of LPS responses.
To generate stable clones expressing human TLR9, murine TLR9, or either TLR9 with the NF-κB-luc reporter plasmid, 293 cells were transfected in 10 cm plates (2×10^6 cells/plate) with 16 μg of DNA and selected with 0.7 mg/ml G418 (PAA Laboratories GmbH, Cölbe, Germany). The clones were also screened for IL-8 production or NF-κB-luciferase activity after stimulation with ODN. Four different types of clones were generated. • 293-hTLR9-luc: expressing human TLR9 and 6-fold NF-κB-luciferase reporter • 293-mTLR9-luc: expressing murine TLR9 and 6-fold NF-κB-luciferase reporter • 293-hTLR9: expressing human TLR9 • 293-mTLR9: expressing murine TLR9
Similar results were obtained utilizing IL-8 production with the stable clone 293-hTLR9. 293-mTLR9-luc were also stimulated with CpG-ODN (1668, 2 μM; […], SEQ ID NO:84), GpC-ODN (1668-GC, 2 μM; […], SEQ ID NO:85), Me-CpG-ODN (1668 methylated, 2 μM; TCCATGAZGTTCCTGATGCT, Z=5-methylcytidine, SEQ ID NO:207), LPS (100 ng/ml) or media, as measured by monitoring NF-κB activation (FIG. 5). Similar results were obtained utilizing IL-8 production with the stable clone 293-mTLR9. Results are representative of at least two independent experiments. […] These cells can be used for screening of optimal ligands for innate immune responses driven by TLR9 in multiple species.
Because stable TLR9 transfectants mirrored primary cell responsiveness to CpG-DNA (FIGS. 4 and 5), it was hypothesized that stable transfectants could potentially discern species-specific CpG-motifs through TLR9 receptors. Therefore 293-hTLR9-luc (expressing human TLR9 and 6-fold NF-κB-luc reporter), 293-mTLR9-luc (expressing murine TLR9 and 6-fold NF-κB-luc reporter), 293-hTLR9 (expressing human TLR9) and 293-mTLR9 (expressing murine TLR9) clones were tested for CpG-DNA motif responsiveness. […] Depicted are both NF-κB-driven luciferase and IL-8 production as readout. […] After lysis of the cells luciferase can be detected photometrically based on an enzymatic reaction by luciferase which creates photons. IL-8 production was monitored using enzyme-linked immunosorbent assay (ELISA). […] Results shown in FIG. 11 are representative of three independent experiments. Strikingly, CpG-motif sequence specificity was conferred in a species-specific manner by TLR9. Additionally, the half-maximal concentration for either 2006 or 1668 appears nearly the same as those determined on primary cells (compare FIG. 10 and FIG. 11).
(§1) Although 2006 and 1668 are discussed in terms of CpG-motif differences, they are very different in several aspects (see Table 5 for comparison). The lengths are different, 24 versus 20 nucleotides, and 2006 has four CG dinucleotides compared to one in 1668. Additional differences are the CG position relative to the 5′ and 3′ ends and also 5′ sequence differences. In order to determine if motif specificity is a quality of the motif and not the global sequence environment, for this experiment several sequences were produced holding these variables constant. As a starting point, the 1668 sequence was modified by converting the central C to T and the distal TG to CG, thereby creating a second CG in the resulting sequence 5000 (SEQ ID NO:130, Table 5). Then point nucleotide changes were made, progressing toward a 2006-like sequence, 5007 (SEQ ID NO:98). The ODN 5002 (SEQ ID NO:132) is most like 1668 with the exception that C's at positions 12 and 19 have been converted to T's. […]

Data set [3] has as its target T1, human TLR9. Description: NF-κB-luciferase activation in 293 cells transfected with human TLR9 (293-hTLR9-luc). Conditions: ODN concentration of half-maximal activation; 293-hTLR9-luc cells, NF-κB-driven luciferase readout, 12 hours; read-out: 293-hTLR9 Kac.
Source text: Since NF-κB activation is central to the IL-1/TLR signal transduction pathway (Medzhitov R et al., Mol Cell 2:253-258 (1998); Muzio M et al., J Exp Med 187:2097-2101 (1998)), cells were transfected with hTLR9 or co-transfected with hTLR9 and a NF-κB-driven luciferase reporter construct. Human fibroblast 293 cells were transiently transfected with (FIG. 1A) hTLR9 and a six-times NF-κB-luciferase reporter plasmid (NF-κB-luc, kindly provided by Patrick Baeuerle, Munich, Germany) or (FIG. 1B) with hTLR9 alone. After stimulus with CpG-ODN (2006, 2 μM, […], SEQ ID NO:112), GpC-ODN (2006-GC, 2 μM, […], SEQ ID NO:118), LPS (100 ng/ml) or media, NF-κB activation by luciferase readout (8 h, FIG. 1A) or IL-8 production by ELISA (48 h, FIG. 1B) were monitored. Results are representative of three independent experiments.
To generate stable clones expressing human TLR9, murine TLR9, or either TLR9 with the NF-κB-luc reporter plasmid, 293 cells were transfected in 10 cm plates (2×10^6 cells/plate) with 16 μg of DNA and selected with 0.7 mg/ml G418 (PAA Laboratories GmbH, Cölbe, Germany). The clones were also screened for IL-8 production or NF-κB-luciferase activity after stimulation with ODN. Four different types of clones were generated. • 293-hTLR9-luc: expressing human TLR9 and 6-fold NF-κB-luciferase reporter • 293-mTLR9-luc: expressing murine TLR9 and 6-fold NF-κB-luciferase reporter • 293-hTLR9: expressing human TLR9 • 293-mTLR9: expressing murine TLR9 […]
Because stable TLR9 transfectants mirrored primary cell responsiveness to CpG-DNA (FIGS. 4 and 5), it was hypothesized that stable transfectants could potentially discern species-specific CpG-motifs through TLR9 receptors. Therefore 293-hTLR9-luc (expressing human TLR9 and 6-fold NF-κB-luc reporter), 293-mTLR9-luc (expressing murine TLR9 and 6-fold NF-κB-luc reporter), 293-hTLR9 (expressing human TLR9) and 293-mTLR9 (expressing murine TLR9) clones were tested for CpG-DNA motif responsiveness. […] Depicted are both NF-κB-driven luciferase and IL-8 production as readout. […] After lysis of the cells luciferase can be detected photometrically based on an enzymatic reaction by luciferase which creates photons. IL-8 production was monitored using enzyme-linked immunosorbent assay (ELISA). FIG. 11 depicts clones stimulated with ODN 2006 (filled circle), ODN 2006-GC (open circle), ODN 1668 (filled triangle) or ODN 1668-GC (open triangle) at indicated concentrations and NF-κB activation or IL-8 production were measured after 10 and 48 hours, respectively. Results shown in FIG. 11 are representative of three independent experiments. Strikingly, CpG-motif sequence specificity was conferred in a species-specific manner by TLR9. Additionally, the half-maximal concentration for either 2006 or 1668 appears nearly the same as those determined on primary cells (compare FIG. 10 and FIG. 11).
as §1

On to “5′-HHHHHHHHHHHHHHWGGGGG-3′ (chemistry not given here) [blocking ODN, H=A, T, C; W=A, T]”, for which the “blockade of CpG-ODN-induced NF-κB activation” value in data set [1] (293-hTLR9-luc cells, CpG-ODN 0.5 μM, increasing concentrations of blocking ODN) is listed as “sensitive to non-CpG-ODN blockade”. Also, the “TNF-driven NF-κB signal” value in data set [1] (293-hTLR9-luc cells, TNF-α 10 ng/ml, increasing concentrations of blocking ODN) is on record as “not diminished”.

With `CO/C1=C\C(C)=C\[C@@H](C)[C@@H](O)[C@@H](C)C/C(C)=C/C=C/[C@H](OC)[C@@H]([C@@H](C)[C@@H](O)[C@H](C)[C@@]2(O)C[C@@H](O)[C@H](C)[C@@H](C(C)C)O2)OC1=O` [Bafilomycin A], the “CpG-ODN induction of NF-κB” value in data set [1] (293-hTLR9-luc cells preincubated 30 min with 10 nM, CpG-ODN 2006 0.5 μM) is “fully blocks”. Further, the “IL-1 and TNF induction of NF-κB” value in data set [1] (293-hTLR9-luc cells preincubated 30 min with 10 nM, IL-1 10 ng/ml or TNF-α 10 ng/ml) is “unaffected”.

“TCCATGACGTCATTGATGTT (listed as DNA, chemistry not fully specified) [ODN 5010]”: the EC50 in data set [2] is > 10 µM.

For “TCCATGACGTCCTTGATGTT (listed as DNA, chemistry not fully specified) [ODN 5009]”, the 293-mTLR9 responsiveness entry in data set [2] (ACGTT versus ACGTC (5002 versus 5009)) was “completely destroyed 293-mTLR9 responsiveness”. Also, the EC50 in data set [2] was > 10 µM.

On to “TCCATGACGTTATTGATGTT (listed as DNA, chemistry not fully specified) [ODN 5008]”, for which the EC50 in data set [2] came to 0.04 µM.

In the case of “TCCATGACGTTCTTGATGTT (listed as DNA, chemistry not fully specified) [ODN 5002]”, the EC50 in data set [3] worked out at 7 µM.

Take “TCCATGACGTTTTTGATGTT (listed as DNA, chemistry not fully specified) [ODN 5003]”: the EC50 in data set [3] was determined as 10 µM.

For the origin of these results see patent publication US7820379B2, “Process for high throughput screening of CpG-based immuno-agonist/antagonist” (Coley Pharmaceutical GmbH, priority 2000, dated 2010).
